Calls of active or inactive are those of the source.
Legend:
MDA-MB-231 = assay: Cytotoxicity against human MDA-MB-231 cells assessed as inhibition of cell growth at 1 to 100 uM incubated for 48 hrs by CCK-8 assay; format: functional, cell-based; conditions: dose 1-100 µM
[1] = target: T1, Hexokinase-2 (Homo sapiens) (UniProt P52789); assay: Induction of HK2 degradation in human MDA-MB-231 cells at 20 uM measured for 36 hrs by Western blot analysis; format: cell-based
T1 sequence (whole entry): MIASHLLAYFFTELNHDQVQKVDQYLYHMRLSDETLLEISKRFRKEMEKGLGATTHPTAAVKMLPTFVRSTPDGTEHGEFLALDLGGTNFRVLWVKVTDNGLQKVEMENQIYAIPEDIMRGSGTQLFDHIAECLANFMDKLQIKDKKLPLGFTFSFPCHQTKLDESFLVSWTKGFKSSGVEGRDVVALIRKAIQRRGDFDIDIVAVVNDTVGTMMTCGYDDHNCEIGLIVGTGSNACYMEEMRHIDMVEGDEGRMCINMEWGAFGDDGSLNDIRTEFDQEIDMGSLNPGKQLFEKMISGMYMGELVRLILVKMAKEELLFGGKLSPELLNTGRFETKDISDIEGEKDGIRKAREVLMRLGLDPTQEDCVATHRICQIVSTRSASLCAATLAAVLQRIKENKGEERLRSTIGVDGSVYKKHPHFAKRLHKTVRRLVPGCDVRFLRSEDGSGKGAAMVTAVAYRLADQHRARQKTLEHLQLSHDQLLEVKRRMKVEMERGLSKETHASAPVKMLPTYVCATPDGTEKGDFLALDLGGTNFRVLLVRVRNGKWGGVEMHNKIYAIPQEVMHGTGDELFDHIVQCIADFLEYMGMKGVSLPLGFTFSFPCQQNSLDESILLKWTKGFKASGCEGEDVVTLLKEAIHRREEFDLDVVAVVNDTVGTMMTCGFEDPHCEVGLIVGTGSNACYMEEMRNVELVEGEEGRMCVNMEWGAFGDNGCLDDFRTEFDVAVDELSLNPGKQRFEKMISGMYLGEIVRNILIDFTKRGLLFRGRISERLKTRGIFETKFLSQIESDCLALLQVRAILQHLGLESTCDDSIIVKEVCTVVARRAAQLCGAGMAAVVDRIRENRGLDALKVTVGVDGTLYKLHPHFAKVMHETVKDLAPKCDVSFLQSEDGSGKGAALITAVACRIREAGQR

4T1 = assay: Antitumor immunity against mouse 4T1 cells implanted in BALB/c mouse model assessed as downregulation of TGF-beta expression in mouse tumor by ELISA analysis; format: functional, cell-based

Measured: Activity

O=C1CCC(N2C(=O)c3cccc(NCCCCNC(=O)c4nn(Cc5ccc(Cl)cc5Cl)c5ccccc45)c3C2=O)C(=O)N1 (stereo not drawn)
active: MDA-MB-231 | [1] | 4T1

Reference: ChEMBL document CHEMBL5331124, “Degradation of Hexokinase 2 Blocks Glycolysis and Induces GSDME-Dependent Pyroptosis to Amplify Immunogenic Cell Death for Breast Cancer Therapy” (J Med Chem, 2023)
